This is an account of results in ChEMBL document CHEMBL1201862, “PubChem BioAssay data set” (2004).

The source made the active and inactive calls.

Assay [1] has as its target T1, Corticotropin-releasing factor receptor 2/Corticotropin-releasing factor-binding protein (Homo sapiens, UniProt P24387+Q13324).
T1 sequence (Q13324 whole entry): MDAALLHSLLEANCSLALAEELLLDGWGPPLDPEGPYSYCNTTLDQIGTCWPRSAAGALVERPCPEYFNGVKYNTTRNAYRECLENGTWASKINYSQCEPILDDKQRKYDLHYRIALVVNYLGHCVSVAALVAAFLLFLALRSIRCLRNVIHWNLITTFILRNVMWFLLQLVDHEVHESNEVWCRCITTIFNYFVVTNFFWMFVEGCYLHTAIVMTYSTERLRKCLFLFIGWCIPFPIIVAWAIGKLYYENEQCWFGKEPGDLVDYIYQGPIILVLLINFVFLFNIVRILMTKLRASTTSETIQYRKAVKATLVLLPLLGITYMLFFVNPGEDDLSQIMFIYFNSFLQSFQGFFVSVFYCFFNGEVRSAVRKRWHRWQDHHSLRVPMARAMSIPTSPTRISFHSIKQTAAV
T1 sequence (P24387 whole entry): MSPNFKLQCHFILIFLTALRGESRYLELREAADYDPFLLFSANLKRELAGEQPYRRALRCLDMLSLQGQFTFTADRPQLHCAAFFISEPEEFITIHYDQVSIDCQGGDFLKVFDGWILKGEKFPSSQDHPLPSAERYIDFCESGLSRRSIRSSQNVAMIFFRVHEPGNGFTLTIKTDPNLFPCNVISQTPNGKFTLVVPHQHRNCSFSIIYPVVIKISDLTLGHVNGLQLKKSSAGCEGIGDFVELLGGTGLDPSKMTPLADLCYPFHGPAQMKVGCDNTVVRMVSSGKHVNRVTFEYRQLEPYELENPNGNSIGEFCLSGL
Briefly: activators of CRF receptor 2 with binding protein – uHTS hits, confirmation (AID 602473). The note with it: read-out: EC50_Mean. It is filed as functional.

Assay [2] deals with T1, Corticotropin-releasing factor receptor 2/Corticotropin-releasing factor-binding protein. Briefly: Dose Response confirmation of uHTS hits for small molecule antagonists of the CRF-binding protein and CRF-R2 receptor complex. In kind it is functional. The note with it: read-out: IC50_Mean.
Assay [3] can be described thus: blockers of CRF-binding protein–CRF-R2 complex – cell-based, uHTS hits, 384-well, dose response (AID 651639). The note with it: read-out: IC50_Mean. In kind it is functional, Homo sapiens.
The nature of assay [4]: bead-based luminescence quenchers, dual-tagged ARNT – biochemical, AlphaScreen, cherry-pick, artefact control for ARNT-TACC3 interaction inhibitor project, dose response (AID 651705).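 Also: AlphaScreen bead proximity signal that flags compounds interfering with the detection technology; potency reflects signal decrease which marks the compound as an assay artifact.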 It is filed as functional. A general note: In Alpha technology, singlet oxygen from a donor bead excites a nearby acceptor bead.
Assay [5] addresses T2, Ubiquitin-conjugating enzyme E2 N (Homo sapiens, UniProt P61088).
T2 sequence (P61088 whole entry): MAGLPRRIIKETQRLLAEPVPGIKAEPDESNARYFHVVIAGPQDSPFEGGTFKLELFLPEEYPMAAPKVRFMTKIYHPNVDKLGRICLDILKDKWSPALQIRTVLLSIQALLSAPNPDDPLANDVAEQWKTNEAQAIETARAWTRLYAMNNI
In kind it is functional.

In assay [6] the target is T3, Microphthalmia-associated transcription factor (Homo sapiens, UniProt O75030).
T3 sequence (O75030 whole entry): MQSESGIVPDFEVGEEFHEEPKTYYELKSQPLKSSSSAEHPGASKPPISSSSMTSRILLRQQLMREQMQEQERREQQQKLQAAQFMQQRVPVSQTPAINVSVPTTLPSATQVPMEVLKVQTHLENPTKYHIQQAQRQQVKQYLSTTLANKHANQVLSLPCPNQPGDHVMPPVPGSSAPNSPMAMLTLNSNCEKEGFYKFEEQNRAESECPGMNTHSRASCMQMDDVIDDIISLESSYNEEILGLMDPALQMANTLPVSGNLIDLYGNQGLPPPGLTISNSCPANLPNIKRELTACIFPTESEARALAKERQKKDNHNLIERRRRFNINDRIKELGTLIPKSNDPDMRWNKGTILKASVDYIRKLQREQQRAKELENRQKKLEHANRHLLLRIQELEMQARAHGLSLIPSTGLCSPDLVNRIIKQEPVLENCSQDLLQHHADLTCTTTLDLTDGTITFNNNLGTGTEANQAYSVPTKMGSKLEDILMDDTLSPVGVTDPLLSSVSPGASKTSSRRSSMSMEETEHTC
Briefly: reducers of TRPM1 reporter luminescence, concentration series – cell-based, SK-MEL-5, cherry-picked, set 3, MITF inhibitor project, dose response (AID 493073).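 Also: SK-MEL-5 melanoma cells with luciferase driven by the MITF target TRPM1 promoter.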 It is filed as functional.

For assay [7], the system named is A-375. Briefly: MITF: Counter assay: A375 proliferation Measured in Cell-Based System Using Plate Reader - 2084-03_Inhibitor_Dose_DryPowder_Activity. [Related pubchem assays (depositor defined):AID488944]. It is filed as functional. The note with it: Homo sapiens.
Assay [8] concerns the target Melanocortin receptor 4 (Homo sapiens, UniProt P32245). It is filed as functional, cell-based.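 Also: Cell-based assay with luminescence read-out, confirmatory dose-response testing for agonist activity of biased ligands at MC4R; human U2OS cells with tagged receptor and beta-arrestin; potency of agonists that increase receptor coupling to beta-arrestin.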
Assay [9] addresses Cytochrome P450 3A4 (Homo sapiens, UniProt P08684). Conditions: Potency.
In assay [10] the target is Tyrosine-protein phosphatase non-receptor type 11 (Homo sapiens, UniProt Q06124). Briefly: PTPN11 enzyme inhibitors – biochemical, selectivity assay for STEP inhibitor project, dose response (AID 602367). It is filed as functional. Conditions: read-out: IC50_Mean.
Chain of Tyrosine-protein phosphatase non-receptor type 11 (Q06124 whole entry): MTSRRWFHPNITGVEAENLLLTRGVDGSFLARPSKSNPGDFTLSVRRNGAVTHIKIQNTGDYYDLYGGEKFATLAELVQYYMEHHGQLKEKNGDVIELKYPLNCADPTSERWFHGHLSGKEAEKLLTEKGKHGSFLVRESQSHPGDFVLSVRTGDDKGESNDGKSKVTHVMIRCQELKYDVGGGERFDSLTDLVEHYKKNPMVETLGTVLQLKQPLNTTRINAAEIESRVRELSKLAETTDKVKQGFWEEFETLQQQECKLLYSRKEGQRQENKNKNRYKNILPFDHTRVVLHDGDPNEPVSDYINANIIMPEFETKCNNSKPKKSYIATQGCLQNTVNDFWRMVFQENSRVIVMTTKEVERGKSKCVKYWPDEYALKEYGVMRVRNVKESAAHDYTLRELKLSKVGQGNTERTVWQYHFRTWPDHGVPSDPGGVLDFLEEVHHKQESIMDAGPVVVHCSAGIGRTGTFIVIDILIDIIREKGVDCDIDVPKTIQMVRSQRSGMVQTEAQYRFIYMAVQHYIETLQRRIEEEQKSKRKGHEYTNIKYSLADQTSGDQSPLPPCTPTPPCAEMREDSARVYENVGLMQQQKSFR
The target of assay [11] is Dual specificity protein phosphatase 3 (Homo sapiens, UniProt P51452). Put plainly: VHR phosphatase inhibition, dose response, selectivity assay for STEP inhibitor project, biochemical (AID 602374). In kind it is functional. The note with it: read-out: IC50_Mean.
Chain of Dual specificity protein phosphatase 3 (P51452 whole entry): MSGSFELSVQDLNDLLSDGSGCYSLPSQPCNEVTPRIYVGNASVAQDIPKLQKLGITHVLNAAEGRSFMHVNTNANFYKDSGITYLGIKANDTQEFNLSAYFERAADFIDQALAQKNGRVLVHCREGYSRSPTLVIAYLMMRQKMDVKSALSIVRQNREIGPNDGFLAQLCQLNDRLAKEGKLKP
Assay [12] concerns the target Cytochrome P450 2D6 (Homo sapiens, UniProt P10635).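 Also: CYP2D6 member of a cytochrome P450 panel assay.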
For assay [13], the target named is Tyrosine-protein phosphatase non-receptor type 5 (Homo sapiens, UniProt P54829). Put plainly: PTPN5 enzyme inhibition – biochemical, fluorescence intensity, uHTS hits, confirmation (AID 602372). It is filed as functional. The note with it: read-out: IC50_Mean.
Chain of Tyrosine-protein phosphatase non-receptor type 5 (P54829 whole entry): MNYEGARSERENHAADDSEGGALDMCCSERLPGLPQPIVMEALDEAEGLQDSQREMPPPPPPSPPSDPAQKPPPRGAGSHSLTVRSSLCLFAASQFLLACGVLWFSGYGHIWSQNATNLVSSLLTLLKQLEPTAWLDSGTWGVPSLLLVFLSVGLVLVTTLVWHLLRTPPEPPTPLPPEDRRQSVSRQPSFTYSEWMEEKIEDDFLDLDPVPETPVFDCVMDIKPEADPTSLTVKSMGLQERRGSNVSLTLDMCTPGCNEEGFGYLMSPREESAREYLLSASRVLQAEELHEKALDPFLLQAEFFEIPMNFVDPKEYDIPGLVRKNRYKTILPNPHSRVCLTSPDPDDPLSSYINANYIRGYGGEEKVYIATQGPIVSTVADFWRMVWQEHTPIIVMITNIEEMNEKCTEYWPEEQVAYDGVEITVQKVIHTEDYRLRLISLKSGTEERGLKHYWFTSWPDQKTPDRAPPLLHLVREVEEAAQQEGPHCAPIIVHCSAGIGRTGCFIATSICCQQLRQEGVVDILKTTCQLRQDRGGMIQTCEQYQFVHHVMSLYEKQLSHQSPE
The subject of assay [14] is BJ. Briefly: growth inhibition of engineered Ras-driven BJ cells – cell-based, alamar blue fluorescence, cherrypicked samples, dose response (AID 2631).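 Also: confirmatory dose-response assay in RAS-dependent BJ fibroblasts engineered with TERT, LT and ST, with cytotoxicity read by fluorescence.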 In kind it is functional. The note with it: Homo sapiens.
Assay [15] can be described thus: DRD fibroblast viability loss – cell-based, non-viral oncogenic, luminescence, dose response (AID 1934). The note with it: Homo sapiens. In kind it is functional.
The nature of assay [16]: Luminescence Cell-Based Dose Response HTS to Identify Inhibitors of 5'UTR Stem-Loop Driven Prion Protein mRNA Translation in H4 Neuroglioblastoma Cells. [Related pubchem assays: 1827 (Project Summary), 1813 (Primary HTS)]. In kind it is functional.
Assay [17] can be described thus: luciferase reporter signal suppression in cells – H4 neuroglioma cells, luminescence, dose response (AID 1990). It is filed as functional, cell-based. On the technique in general: In a reporter assay the amount or activity of a reporter protein is the signal.
For assay [18], the system named is BJ. Put plainly: BJ-TERT fibroblast viability loss – cell-based, RAS-independent, luminescence, dose response (AID 1933). In kind it is functional. Conditions: Homo sapiens.
Assay [19] can be described thus: alpha-synuclein stem-loop luciferase translation blockers – H4 neuroglioma cells, luminescence, confirmation (AID 1988). It is filed as functional, cell-based.
In assay [20] the test system is BJ. Put plainly: cells. It is filed as functional, cell-based. The note with it: Homo sapiens.
Assay [21] has as its target T4, Short transient receptor potential channel 4 (Mus musculus, UniProt Q9QUQ5).
T4 sequence (Q9QUQ5 whole entry): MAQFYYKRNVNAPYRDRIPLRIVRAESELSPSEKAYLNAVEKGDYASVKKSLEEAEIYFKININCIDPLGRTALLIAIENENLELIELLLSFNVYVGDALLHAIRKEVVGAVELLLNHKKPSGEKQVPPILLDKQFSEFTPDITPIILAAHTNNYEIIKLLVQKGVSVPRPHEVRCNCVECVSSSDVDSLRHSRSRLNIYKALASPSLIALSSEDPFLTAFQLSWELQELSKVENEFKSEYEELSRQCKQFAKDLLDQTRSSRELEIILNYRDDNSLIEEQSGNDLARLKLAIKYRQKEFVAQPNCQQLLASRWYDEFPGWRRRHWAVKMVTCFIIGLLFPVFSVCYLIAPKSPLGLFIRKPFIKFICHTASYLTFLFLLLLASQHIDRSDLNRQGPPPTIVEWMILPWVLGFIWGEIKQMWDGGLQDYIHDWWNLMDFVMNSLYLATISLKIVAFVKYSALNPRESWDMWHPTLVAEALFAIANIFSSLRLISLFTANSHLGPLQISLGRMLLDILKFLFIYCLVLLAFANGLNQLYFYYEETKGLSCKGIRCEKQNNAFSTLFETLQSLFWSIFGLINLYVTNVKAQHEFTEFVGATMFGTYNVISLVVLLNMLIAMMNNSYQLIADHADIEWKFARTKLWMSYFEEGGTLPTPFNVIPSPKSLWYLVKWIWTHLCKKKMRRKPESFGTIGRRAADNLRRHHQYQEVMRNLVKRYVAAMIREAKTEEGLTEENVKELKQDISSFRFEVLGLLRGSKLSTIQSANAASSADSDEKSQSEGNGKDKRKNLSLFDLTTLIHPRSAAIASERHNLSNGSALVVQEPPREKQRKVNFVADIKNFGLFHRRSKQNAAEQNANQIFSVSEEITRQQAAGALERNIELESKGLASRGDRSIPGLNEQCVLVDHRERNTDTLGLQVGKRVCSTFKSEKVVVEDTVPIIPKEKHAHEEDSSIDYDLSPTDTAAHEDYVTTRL
Put plainly: block of DAMGO-driven TRPC4 calcium entry – cell-based, HEK293 TRPC4/mu-opioid, Fluo-4 calcium, dose response (AID 434942).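 Also: potency of inhibitors blocking the TRPC4 calcium response.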 In kind it is functional.

Assay [22] deals with BJ. Put plainly: BJ-TERT-LT-ST fibroblast viability loss – cell-based, RAS-independent, luminescence, dose response (AID 1935).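 Also: BJ fibroblasts immortalized with TERT plus LT and ST oncogenes.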 It is filed as functional. The note with it: Homo sapiens.
The target in assay [23] is Ras and Rab interactor 1/Tyrosine-protein kinase ABL1 (Homo sapiens, UniProt P00519+Q13671). In kind it is functional.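 Also: biochemical TR-FRET dose-response test measuring inhibition of binding between Rin1 and Abl proteins.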
Chain of Ras and Rab interactor 1/Tyrosine-protein kinase ABL1 (P00519 whole entry): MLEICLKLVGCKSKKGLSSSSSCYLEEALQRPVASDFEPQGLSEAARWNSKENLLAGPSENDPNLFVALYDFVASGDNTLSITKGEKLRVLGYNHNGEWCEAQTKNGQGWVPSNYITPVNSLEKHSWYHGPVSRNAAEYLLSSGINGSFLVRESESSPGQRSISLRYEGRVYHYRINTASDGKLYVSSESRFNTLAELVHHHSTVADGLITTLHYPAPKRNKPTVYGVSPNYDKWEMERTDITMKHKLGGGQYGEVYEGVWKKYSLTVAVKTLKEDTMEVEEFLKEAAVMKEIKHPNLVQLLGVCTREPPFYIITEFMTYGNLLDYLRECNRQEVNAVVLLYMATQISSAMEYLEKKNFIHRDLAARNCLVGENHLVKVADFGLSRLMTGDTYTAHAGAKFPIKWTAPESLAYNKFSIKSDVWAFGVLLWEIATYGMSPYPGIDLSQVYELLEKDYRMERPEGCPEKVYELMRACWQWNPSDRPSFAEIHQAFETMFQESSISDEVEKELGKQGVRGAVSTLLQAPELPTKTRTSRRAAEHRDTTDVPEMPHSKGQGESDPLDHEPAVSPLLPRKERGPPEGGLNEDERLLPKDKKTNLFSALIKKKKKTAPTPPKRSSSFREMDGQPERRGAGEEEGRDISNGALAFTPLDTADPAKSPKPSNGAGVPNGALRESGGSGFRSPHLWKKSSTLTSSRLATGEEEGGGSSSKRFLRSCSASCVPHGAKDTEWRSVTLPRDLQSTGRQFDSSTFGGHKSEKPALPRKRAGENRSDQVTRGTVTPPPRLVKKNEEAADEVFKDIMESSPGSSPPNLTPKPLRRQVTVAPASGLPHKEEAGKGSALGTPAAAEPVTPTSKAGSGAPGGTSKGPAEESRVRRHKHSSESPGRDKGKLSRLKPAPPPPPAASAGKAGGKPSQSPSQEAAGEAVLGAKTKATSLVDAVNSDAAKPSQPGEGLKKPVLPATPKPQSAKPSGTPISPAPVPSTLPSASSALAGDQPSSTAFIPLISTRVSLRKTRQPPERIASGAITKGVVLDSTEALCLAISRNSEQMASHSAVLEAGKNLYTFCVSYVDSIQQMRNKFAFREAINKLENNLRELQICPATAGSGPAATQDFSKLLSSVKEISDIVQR
Chain of Ras and Rab interactor 1/Tyrosine-protein kinase ABL1 (Q13671 whole entry): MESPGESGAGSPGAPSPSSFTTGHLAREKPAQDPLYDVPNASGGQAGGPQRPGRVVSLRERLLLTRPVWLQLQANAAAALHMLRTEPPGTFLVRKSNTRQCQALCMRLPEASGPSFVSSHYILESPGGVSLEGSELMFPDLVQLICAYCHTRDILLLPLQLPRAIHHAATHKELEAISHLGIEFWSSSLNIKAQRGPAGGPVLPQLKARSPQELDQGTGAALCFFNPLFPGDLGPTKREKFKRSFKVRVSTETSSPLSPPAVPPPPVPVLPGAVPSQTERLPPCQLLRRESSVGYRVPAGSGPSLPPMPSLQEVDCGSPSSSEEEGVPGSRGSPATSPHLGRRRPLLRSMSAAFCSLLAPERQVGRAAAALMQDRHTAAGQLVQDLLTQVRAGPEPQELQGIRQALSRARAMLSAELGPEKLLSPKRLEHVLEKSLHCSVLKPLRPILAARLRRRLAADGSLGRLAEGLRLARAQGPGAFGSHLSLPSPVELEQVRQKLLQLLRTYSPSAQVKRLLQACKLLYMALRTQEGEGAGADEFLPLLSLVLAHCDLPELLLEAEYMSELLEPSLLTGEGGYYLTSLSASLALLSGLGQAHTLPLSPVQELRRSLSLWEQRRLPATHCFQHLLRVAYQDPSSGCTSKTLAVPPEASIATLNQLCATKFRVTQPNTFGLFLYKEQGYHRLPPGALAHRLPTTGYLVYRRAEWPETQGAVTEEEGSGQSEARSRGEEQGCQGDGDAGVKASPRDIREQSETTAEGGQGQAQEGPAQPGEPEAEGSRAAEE
Assay [24] is described as follows: HEK-293T viability loss after treatment – luminescence, T-cell screen hits, cytotoxicity control for TCR NF-kB inhibitor project, dose response (AID 489026).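 Also: cells exposed to compound about 14 hours before the viability readout.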 It is filed as functional, cell-based.

Chain of Melanocortin receptor 4 (P32245 whole entry): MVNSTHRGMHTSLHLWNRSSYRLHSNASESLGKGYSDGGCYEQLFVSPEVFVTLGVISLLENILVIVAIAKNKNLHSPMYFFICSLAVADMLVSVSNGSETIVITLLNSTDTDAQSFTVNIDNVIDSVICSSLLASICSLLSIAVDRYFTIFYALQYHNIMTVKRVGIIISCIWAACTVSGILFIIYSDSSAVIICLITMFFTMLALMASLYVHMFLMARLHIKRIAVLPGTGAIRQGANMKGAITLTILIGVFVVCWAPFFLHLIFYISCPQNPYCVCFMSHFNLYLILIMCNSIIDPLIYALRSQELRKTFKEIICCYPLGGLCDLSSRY
Chain of Cytochrome P450 3A4 (P08684 whole entry): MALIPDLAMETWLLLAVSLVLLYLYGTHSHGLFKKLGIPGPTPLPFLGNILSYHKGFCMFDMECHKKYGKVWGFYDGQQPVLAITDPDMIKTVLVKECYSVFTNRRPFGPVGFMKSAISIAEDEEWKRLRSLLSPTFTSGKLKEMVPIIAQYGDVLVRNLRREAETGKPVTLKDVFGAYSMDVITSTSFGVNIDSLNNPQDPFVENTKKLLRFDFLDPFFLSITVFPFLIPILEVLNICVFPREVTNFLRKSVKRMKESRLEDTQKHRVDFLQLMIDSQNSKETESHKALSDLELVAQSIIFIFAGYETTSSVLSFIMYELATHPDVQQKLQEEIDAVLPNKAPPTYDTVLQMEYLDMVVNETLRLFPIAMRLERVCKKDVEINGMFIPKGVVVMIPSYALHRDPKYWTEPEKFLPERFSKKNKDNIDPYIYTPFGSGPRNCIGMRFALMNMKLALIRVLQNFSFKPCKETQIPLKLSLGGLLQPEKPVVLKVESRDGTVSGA
Chain of Cytochrome P450 2D6 (P10635 whole entry): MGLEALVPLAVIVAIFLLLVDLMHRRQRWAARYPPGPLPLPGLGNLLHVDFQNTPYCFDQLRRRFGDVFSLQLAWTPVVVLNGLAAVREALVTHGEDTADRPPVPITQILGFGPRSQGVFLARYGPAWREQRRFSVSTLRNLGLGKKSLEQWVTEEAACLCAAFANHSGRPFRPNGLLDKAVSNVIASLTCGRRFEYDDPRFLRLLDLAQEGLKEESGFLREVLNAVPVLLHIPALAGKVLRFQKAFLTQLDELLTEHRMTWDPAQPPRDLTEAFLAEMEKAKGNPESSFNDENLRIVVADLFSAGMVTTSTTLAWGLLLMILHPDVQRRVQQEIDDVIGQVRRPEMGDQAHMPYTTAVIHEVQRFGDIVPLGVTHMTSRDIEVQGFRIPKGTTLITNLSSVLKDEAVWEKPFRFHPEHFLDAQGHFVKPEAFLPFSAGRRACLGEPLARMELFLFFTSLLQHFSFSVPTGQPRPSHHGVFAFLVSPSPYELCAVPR

For `Cc1ccc(N(C(=O)c2nsc(Cl)c2Cl)C(C(=O)NC2CCCC2)c2ccc(O)cc2)cc1C` (stereo not drawn), the EC50 in assay [1] was > 53 µM (inactive). Moreover, the IC50 in assay [2] was 5.91 µM (active); in assay [3], > 20 µM (inactive).
Broadly, the AC50 is the midpoint of the concentration-response curve, whichever way the signal moves. As for `NNc1ccc(S(=O)(=O)N2CCCCC2)cn1`, in assay [4], the AC50 was 87.7 µM (active).
For `CCCCCCCNC(=O)C1(CC2CC(c3ccc(Cl)cc3)=NO2)CCNCC1` (stereo not drawn), the IC50 in [5] was > 20 µM (inactive). In addition, the half-maximal activity concentration (AC50) in assay [6] is 14 µM (active); in [7], 19.9 µM (active). For the same molecule, in assay [8], the EC50 was > 89.2 µM (inactive).
As for `Cc1nnc(NC(=O)c2ccc(S(=O)(=O)N3CC(C)OC(C)C3)cc2)o1` (stereo not drawn), the concentration at half-maximal activity (AC50) in assay [4] is 122 µM (active).
`Oc1cc(Cl)c(Cl)c(Cl)c1`: in assay [1], the EC50 is > 53 µM (inactive). Further, the concentration at half-maximal activity (AC50) in [9] is 12.6 µM (inconclusive). The IC50 was 9.09 µM (active) in [2] and > 20 µM (inactive) in assay [3].
`OCCN1CCN(C(=S)c2ccc(Br)cc2)CC1`: the IC50 was 3.34 µM (active) in [10], 1.3 µM (active) in assay [11] and 20.1 µM (inactive) in [13]. Moreover, the AC50 in [12] was 0.0224 µM (inconclusive).
With `COc1ccc2c(c1)sc(N)[n+]2Cc1cc(C)cc2cccnc12`, the EC50 in assay [14] was 0.605 µM (active); in [15] it was 1.61 µM (active); in assay [16] it was 8.01 µM (active); in assay [17] it was 7.07 µM (inconclusive); in [18], 1.98 µM (active); in [19], 0.2 µM (active). In addition, the EC50 in assay [20] was 1.55 µM (inconclusive); in assay [21], 1.33 µM (active); in [22], 1.5 µM (inconclusive).
For `COc1ccc(Cl)cc1NC(=O)CN(C)C(=O)c1cc(-c2ccncc2)nc2ccccc12`, the IC50 in assay [23] was 1.86 µM (active).
As to `COc1cccc(-c2cnc3c(NC=O)cc(-c4ccoc4)cn23)c1`, the EC50 in assay [8] was > 89.2 µM (inactive).
As to `O=C(N/N=C/c1ccccc1Cl)c1[nH]c2ccc(Br)cc2c1-c1ccccc1`, in assay [24], the IC50 was > 80 µM (inactive). In addition, the EC50 was 0.2 µM (active) in [14]; 0.615 µM (active) in assay [15]; 0.136 µM (active) in assay [16]; 0.304 µM (active) in assay [17]; 0.608 µM (active) in assay [18]; 0.163 µM (active) in assay [19]. Moreover, the results for the EC50 in assay [20] and in assay [22] were 27.5 µM (active) and 0.748 µM (inconclusive), respectively.
As to `O=C(Cc1ccc(NC(=O)C2CCN(C(=O)C3CCC3)CC2)cc1)Nc1ccc(C(=O)N2CCOCC2)cc1`, the IC50 in [23] was 16.5 µM (inactive).
